Laboratory results taken from patent publication US11034725B2, “Compositions and methods for treating cardiovascular disease” (Genentech, Inc., priority 2016, dated 2021).
Values joined by “and” are separate entries in the source; they are usually repeats but may differ in a detail not shown here. Equal values may be shown once. Read-outs that look alike come from different tables or passages of the source. Bridge positions count the residues as written; N and C are the ends. Square brackets hold non-standard residues; d marks the D form. Peptide text beside a SMILES is read from it. * marks the point of attachment. Trp(6-F) = N[C@@H](Cc1c[nH]c2cc(F)ccc12)C(=O)O; hArg = N=C(N)NCCCC[C@H](N)C(=O)O; Pentanoyl = CCCCC(=O)*; Butyryl = CCCC(=O)*; Ahx = NCCCCCC(=O)O

Legend:
PCSK9 = PCSK9 (Homo sapiens, UniProt Q8NBP7); test: PCSK9/EGF(A) TR-FRET binding assay
Chain of PCSK9 (Q8NBP7 153-692): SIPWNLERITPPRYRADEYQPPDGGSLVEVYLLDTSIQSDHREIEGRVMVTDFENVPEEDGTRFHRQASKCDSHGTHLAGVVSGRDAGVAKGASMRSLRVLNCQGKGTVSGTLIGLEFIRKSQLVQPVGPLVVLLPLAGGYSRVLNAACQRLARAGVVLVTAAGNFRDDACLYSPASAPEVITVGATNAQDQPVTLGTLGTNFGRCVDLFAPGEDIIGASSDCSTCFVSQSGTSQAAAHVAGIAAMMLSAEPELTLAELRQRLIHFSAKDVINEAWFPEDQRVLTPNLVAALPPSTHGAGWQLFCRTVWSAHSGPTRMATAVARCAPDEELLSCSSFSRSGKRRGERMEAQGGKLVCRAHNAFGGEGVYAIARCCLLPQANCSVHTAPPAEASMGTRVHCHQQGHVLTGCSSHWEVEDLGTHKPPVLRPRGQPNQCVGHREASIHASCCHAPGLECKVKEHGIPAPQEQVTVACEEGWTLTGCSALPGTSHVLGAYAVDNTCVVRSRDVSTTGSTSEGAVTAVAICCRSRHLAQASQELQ
Chain of PCSK9 (Q8NBP7 31-152 partner limits assumed): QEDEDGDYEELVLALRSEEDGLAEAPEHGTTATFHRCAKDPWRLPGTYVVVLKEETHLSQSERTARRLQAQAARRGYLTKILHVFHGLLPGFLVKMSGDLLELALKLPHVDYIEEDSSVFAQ

PCSK9Δhelix = molecular target: T1, PCSK9Δhelix (Homo sapiens, UniProt Q8NBP7); test: PCSK9Δhelix/Ab20 TR-FRET binding assay
T1 construct: Human PCSK9 construct M1-Q692 with an engineered TEV site (residue deletion Y166, R167); made in house; host or cells: CHO
T1 sequence (Q8NBP7 with tags, fused parts or gaps limits assumed): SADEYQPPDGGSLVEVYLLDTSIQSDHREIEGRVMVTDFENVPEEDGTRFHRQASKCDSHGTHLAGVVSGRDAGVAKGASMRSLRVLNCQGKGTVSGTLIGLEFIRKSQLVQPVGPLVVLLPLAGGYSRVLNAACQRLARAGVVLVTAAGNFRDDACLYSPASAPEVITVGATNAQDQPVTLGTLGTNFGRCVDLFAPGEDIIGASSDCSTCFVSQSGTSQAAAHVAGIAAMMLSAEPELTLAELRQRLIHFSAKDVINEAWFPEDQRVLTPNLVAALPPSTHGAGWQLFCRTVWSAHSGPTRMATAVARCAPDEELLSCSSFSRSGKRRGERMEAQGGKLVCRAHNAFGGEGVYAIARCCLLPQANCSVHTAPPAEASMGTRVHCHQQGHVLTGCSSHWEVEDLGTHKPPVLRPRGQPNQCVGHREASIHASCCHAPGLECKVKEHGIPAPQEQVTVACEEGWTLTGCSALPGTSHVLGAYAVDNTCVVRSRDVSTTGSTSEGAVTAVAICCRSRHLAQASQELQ
T1 sequence (Q8NBP7 31-152 partner limits assumed): as the sequence (Q8NBP7 31-152 partner limits assumed) above

His-EGF(A)-Fc = His-EGF(A)-Fc TR-FRET counterscreen
[1] = TR-FRET, Table 8E, additional compounds, read-out: PCSK9/EGF(A) IC50
[2] = TR-FRET, Table 8E, additional compounds, read-out: PCSK9Δhelix/Ab20 IC50
[3] = TR-FRET counterscreen, Table 8E, additional compounds
[4] = TR-FRET, Table 8D, disulfide-cyclized extension peptides, read-out: PCSK9/EGF(A) IC50
[5] = TR-FRET, Table 8D, disulfide-cyclized extension peptides, read-out: PCSK9Δhelix/Ab20 IC50
[6] = TR-FRET counterscreen, Table 8D, * = some inhibition at highest concentrations, not sufficient to fit an IC50
[7] = TR-FRET, Example 7, read-out: PCSK9/EGF(A) IC50
[8] = TR-FRET, Example 7, read-out: PCSK9Δhelix/Ab20 IC50

## CCCC(=O)N[C@@H](Cc1c[nH]c2ccccc12)C(=O)N[C@@H](CC(N)=O)C(=O)N[C@@H](CC(C)C)C(=O)N[C@H](C(=O)N[C@@H](CCCNC(=N)N)C(=O)N[C@H](C(=O)NCC(=O)N[C@@H](CC(C)C)C(=O)N[C@@H](CC(C)C)C(=O)N[C@@H](CCCNC(=N)N)C(N)=O)[C@@H](C)CC)C(C)C [Compound 123] (Butyryl-WNLVRIGLLR-NH2)
PCSK9; [1]
  IC50: ≥ 50 µM
PCSK9Δhelix; [2]
  IC50: 18 µM
His-EGF(A)-Fc; [3]
  IC50: ≥ 50 µM

## CCCCC(=O)N[C@@H](Cc1c[nH]c2ccccc12)C(=O)N[C@@H](CC(N)=O)C(=O)N[C@@H](CC(C)C)C(=O)N[C@H](C(=O)N[C@@H](CCCNC(=N)N)C(=O)N[C@H](C(=O)NCC(=O)N[C@@H](CC(C)C)C(=O)N[C@@H](C)C(=O)N[C@@H](CCCNC(=N)N)C(N)=O)[C@@H](C)CC)C(C)C [Compound 180] (Pentanoyl-WNLVRIGLAR-NH2)
PCSK9; [1]
  IC50: ≥ 50 µM
PCSK9Δhelix; [2]
  IC50: 12 µM
His-EGF(A)-Fc; [3]
  IC50: ≥ 50 µM

## CC[C@H](C)[C@@H]1NC(=O)[C@H](CCCNC(=N)N)NC(=O)[C@H](CCC(N)=O)NC(=O)[C@H](CC(C)C)NC(=O)[C@H](CC(N)=O)NC(=O)[C@H](Cc2c[nH]c3ccccc23)NC(=O)[C@H]2CCCN2C(=O)[C@H](CC(C)C)NC(=O)[C@H](CCCNC(=N)N)NC(=O)[C@@H](NC(C)=O)CSSC[C@@H](C(N)=O)NC(=O)[C@@H]2CCCN2C(=O)[C@H](CC(C)C)NC(=O)CNC1=O [Compound 107] (Ac-CRL[dP]WNLQRIGLPC-NH2; disulfide 1-14)
PCSK9; [4]
  IC50: > 50 µM
PCSK9Δhelix; [5]
  IC50: > 50 µM
His-EGF(A)-Fc; [6]
  IC50: > 50 µM

## CC[C@H](C)[C@@H]1NC(=O)[C@H](CCCNC(=N)N)NC(=O)[C@@H](CCC(N)=O)NC(=O)[C@H](CC(C)C)NC(=O)[C@H](CC(N)=O)NC(=O)[C@H](Cc2c[nH]c3ccccc23)NC(=O)[C@@H]2CCCN2C(=O)[C@H](CC(C)C)NC(=O)[C@H](CCCNC(=N)N)NC(=O)[C@@H](NC(C)=O)CSSC[C@@H](C(N)=O)NC(=O)[C@@H]2CCCN2C(=O)[C@H](CC(C)C)NC(=O)CNC1=O [Compound 103, Ac-CRLPWNLqRIGLPC-NH2] (Ac-CRLPWNL[dQ]RIGLPC-NH2; disulfide 1-14)
PCSK9; [4]
  IC50: > 50 µM
PCSK9Δhelix; [5]
  IC50: > 50 µM
His-EGF(A)-Fc; [6]
  IC50: > 50 µM

## CC[C@H](C)[C@@H]1NC(=O)[C@H](CCCNC(=N)N)NC(=O)[C@H](CCCCN)NC(=O)[C@H](CC(C)C)NC(=O)[C@H](CC(N)=O)NC(=O)[C@H](Cc2c[nH]c3ccccc23)NC(=O)[C@@H](NC(=O)CNC(=O)[C@H](CO)NC(=O)CNC(C)=O)CSSC[C@@H](C(N)=O)NC(=O)CNC(=O)[C@H](CCC(N)=O)NC(=O)[C@H](CO)NC(=O)CNC1=O [Compound 22] (Ac-GSGCWNLKRIGSQGC-NH2; disulfide 4-15 (inferred))
PCSK9; PCSK9/EGF(A) IC50, TR-FRET, Table 8D, disulfide-cyclized extension peptides
  IC50: > 50 µM
PCSK9Δhelix; PCSK9Δhelix/Ab20 IC50, TR-FRET, Table 8D, disulfide-cyclized extension peptides
  IC50: 14 µM and > 50 µM
His-EGF(A)-Fc; [6]
  IC50: > 50 µM

## CC[C@H](C)[C@@H]1NC(=O)[C@H](CCCNC(=N)N)NC(=O)[C@H](CCC(N)=O)NC(=O)[C@H](CC(C)C)NC(=O)[C@H](CC(N)=O)NC(=O)[C@H](Cc2c[nH]c3ccccc23)NC(=O)[C@@H]2CCCN2C(=O)[C@H](CC(C)C)NC(=O)[C@H](CCCNC(=N)N)NC(=O)[C@@H](NC(C)=O)CSSC[C@@H](C(N)=O)NC(=O)CCCCCNC1=O [Compound 116] (Ac-CRLPWNLQRI[Ahx]C-NH2; disulfide 1-12)
PCSK9; [4]
  IC50: > 50 µM
PCSK9Δhelix
  inhibition in the PCSK9Δhelix/Ab20 binding assay: weak but detectable inhibition
PCSK9Δhelix; [5]
  IC50: 31.6 µM
His-EGF(A)-Fc; [6]
  IC50: > 50 µM

## CC[C@H](C)[C@@H]1NC(=O)[C@H](CCCNC(=N)N)NC(=O)[C@H](CCC(N)=O)NC(=O)[C@H](CC(C)C)NC(=O)[C@H](C)NC(=O)[C@H](Cc2c[nH]c3ccccc23)NC(=O)[C@@H]2CCCN2C(=O)[C@H](CC(C)C)NC(=O)[C@H](CCCNC(=N)N)NC(=O)[C@@H](NC(C)=O)CSSC[C@@H](C(N)=O)NC(=O)[C@@H]2CCCN2C(=O)[C@H](CC(C)C)NC(=O)CNC1=O [Compound 75] (Ac-CRLPWALQRIGLPC-NH2; disulfide 1-14)
PCSK9; [4]
  IC50: > 50 µM
PCSK9Δhelix; [5]
  IC50: 49.5 µM
His-EGF(A)-Fc; [6]
  IC50: > 50 µM

## CCCCC(=O)N[C@@H](Cc1c[nH]c2ccccc12)C(=O)N[C@@H](CC(N)=O)C(=O)N[C@@H](CC(C)C)C(=O)N[C@H](C(=O)N[C@@H](CCCNC(=N)N)C(=O)N[C@H](C(=O)NCC(=O)N[C@H](C(=O)N[C@H](C(=O)N[C@@H](CCCNC(=N)N)C(N)=O)[C@@H](C)O)[C@@H](C)O)[C@@H](C)CC)C(C)C [Compound 113] (Pentanoyl-WNLVRIGTTR-NH2)
PCSK9; [7]
  IC50: > 50 µM
PCSK9Δhelix; [8]
  IC50: > 50 µM
His-EGF(A)-Fc; counterscreen, Example 7
  IC50: > 50 µM

## CC[C@@H](C)[C@H]1NC(=O)[C@H](CCCNC(=N)N)NC(=O)[C@H](CCC(N)=O)NC(=O)[C@H](CC(C)C)NC(=O)[C@H](CC(N)=O)NC(=O)[C@H](Cc2c[nH]c3ccccc23)NC(=O)[C@@H]2CCCN2C(=O)[C@H](CC(C)C)NC(=O)[C@H](CCCNC(=N)N)NC(=O)[C@@H](NC(C)=O)CSSC[C@@H](C(N)=O)NC(=O)[C@@H]2CCCN2C(=O)[C@H](CC(C)C)NC(=O)CNC1=O [Compound 101] (Ac-CRLPWNLQR[dI]GLPC-NH2; disulfide 1-14)
PCSK9; [4]
  IC50: > 50 µM
PCSK9Δhelix; [5]
  IC50: > 50 µM
His-EGF(A)-Fc; [6]
  IC50: > 50 µM

## CCCCC(=O)N[C@@H](Cc1c[nH]c2ccccc12)C(=O)N[C@@H](CC(N)=O)C(=O)N[C@@H](CC(C)C)C(=O)N[C@H](C(=O)N[C@@H](CCCCNC(=N)N)C(=O)N[C@H](C(=O)NCC(=O)N[C@@H](CC(C)C)C(=O)N[C@H](C(=O)N[C@@H](CCCNC(=N)N)C(=O)O)[C@@H](C)O)[C@@H](C)CC)C(C)C [Compound 235, n-BuC(O)-WNLV(homoR)IGLTR] (Pentanoyl-WNLV[hArg]IGLTR-OH)
PCSK9; [1]
  IC50: ≥ 50 µM
PCSK9Δhelix; [2]
  IC50: 2.7 µM
His-EGF(A)-Fc; [3]
  IC50: ≥ 50 µM

## Ac-DLMPWNLVRAGLLR-NH2 [Compound 58]
PCSK9; [7]
  IC50: > 50 µM
PCSK9Δhelix; [8]
  IC50: > 49.5 µM
His-EGF(A)-Fc; counterscreen, Example 7
  IC50: > 50 µM

## CCCCC(=O)N[C@@H](Cc1c[nH]c2ccccc12)C(=O)N[C@@H](CC(N)=O)C(=O)N[C@@H](CC(C)C)C(=O)N[C@H](C(=O)N[C@@H](CCCNC(=N)N)C(=O)N[C@H](C(=O)NCC(=O)N[C@H](C(=O)N[C@@H](CC(C)C)C(=O)N[C@@H](CCCNC(=N)N)C(N)=O)[C@@H](C)O)[C@@H](C)CC)C(C)C [Compound 114] (Pentanoyl-WNLVRIGTLR-NH2)
PCSK9; [7]
  IC50: > 50 µM
PCSK9Δhelix; [8]
  IC50: > 50 µM
His-EGF(A)-Fc; counterscreen, Example 7
  IC50: > 50 µM

## CCCCC(=O)N[C@@H](Cc1c[nH]c2cc(F)ccc12)C(=O)N[C@@H](CC(N)=O)C(=O)N[C@@H](CC(C)C)C(=O)N[C@H](C(=O)N[C@@H](CCCNC(=N)N)C(=O)N[C@H](C(=O)NCC(=O)N[C@@H](CC(C)C)C(=O)N[C@H](C(=O)N[C@@H](CCCNC(=N)N)C(N)=O)[C@@H](C)O)[C@@H](C)CC)C(C)C [Compound 174] (Pentanoyl-[Trp(6-F)]NLVRIGLTR-NH2)
PCSK9; [1]
  IC50: ≥ 50 µM
PCSK9Δhelix; [2]
  IC50: 6.2 µM
His-EGF(A)-Fc; [3]
  IC50: ≥ 50 µM

## Ac-TVFTSWEEYLDWVGSGKLWN-NH2 [Compound 7]
PCSK9; [7]
  IC50: 0.5 µM
PCSK9Δhelix; [8]
  IC50: 18.6 µM
His-EGF(A)-Fc; counterscreen, Example 7
  IC50: > 50 µM

## CCCCC(=O)N[C@@H](Cc1c[nH]c2ccccc12)C(=O)N[C@@H](CC(N)=O)C(=O)N[C@@H](CC(C)C)C(=O)N[C@H](C(=O)N[C@@H](CCCNC(=N)N)C(=O)N[C@H](C(=O)NCC(=O)N[C@@H](CC(C)C)C(=O)N[C@@H](CC(C)C)C(=O)N[C@@H](CCCNC(=N)N)C(N)=O)[C@@H](C)CC)C(C)C [Compound 111] (Pentanoyl-WNLVRIGLLR-NH2)
PCSK9; [7]
  IC50: > 50 µM
PCSK9Δhelix; [8]
  IC50: 4.9 µM
His-EGF(A)-Fc; counterscreen, Example 7
  IC50: > 50 µM

## Ac-DLMPWNLVAIGLLR-NH2 [Compound 59]
PCSK9; [7]
  IC50: > 50 µM
PCSK9Δhelix; [8]
  IC50: > 49.5 µM
His-EGF(A)-Fc; counterscreen, Example 7
  IC50: > 50 µM
